Measurements: patent US9138659B2, “Compositions, methods, and systems relating to controlled crystallization and/or nucleation of molecular species” (Massachusetts Institute of Technology, priority 2010, dated 2015)
In brackets after ≈: the same amount, converted by molar mass. Entries after “also recorded” stand apart in the source; their conditions may differ.

Key:
[1] = Partition coefficients of CBZ and ROY in PEGMDA microgels from ethanol solutions; type: physicochemical; details: ethanol solution
[2] = CBZ anhydrous forms; ambient conditions; cited from earlier work
[3] = CBZ nucleation induction time and polymorphic outcome with PEGMDA microgels in ethanol; type: physicochemical
Text: Results and Discussion: Monodispersed cubelike PEGMDA microgels (FIG. 27 left), with M ranging from 130 to 700 g/mol were synthesized by Stop-Flow Lithography, The mesh sizes vary from 0.7 to 1.5 nm in solvent ethanol (Table 9), estimated from equilibrium swelling by the Flory-Rehner theory. The accuracy of this method for obtaining mesh sizes has been confirmed with Small-Angle Neutron Scattering in a different solvent. The microgels were utilized for controlling polymorph crystallization by suspending ˜10 μg of microgels per 1 ml solution by stiffing. Such a low microgel concentration may be sufficient to effect drastic change in the crystallization behavior (discussed later), underscoring the effectiveness of polymer microgels in controlling crystallization. In all crystallization experiments, supersaturation of the solution was generated by cooling instead of solvent evaporation, despite its popularity in numerous polymorph studies, to yield better control over the crystallization process.
Occasionally, pure Form III was also obtained from bulk experiments. […] However, such polymorph selectivity could not be attained using microgels with M<400 g/mol (˜100 trials) where the polymorphic outcome was quite similar to that of the bulk samples (Table 9), only with a decreased mass fraction of Form I in the mixture obtained (FIG. 28 discussed later) and a lower frequency of occurrence of Form III.
Average mesh size ξ was estimated from equilibrium swelling experiments in solvent ethanol. Induction time distribution data were fitted with stretched exponentials via nonlinear least square regression: P=exp[−(t/τ)^β], where P is the probability to observe no crystallization event within time t.
Induction time was measured by monitoring IR transmission signal passing through a solution in controlled temperature environment and stirring condition. Once nucleation occurred, the solution became turbid in seconds indicated by a sharp drop of IR signal, due to secondary nucleation and rapid crystal growth. The statistical nature of nucleation necessitated a large number of experiments (50-100) for obtaining the distribution of induction times, from which the average induction time τ was regressed with a stretched-exponential model, P(t)=exp[−(t/τ)^β], where P is the probability to observe no crystallization event within time t. In brief, the stretched-exponential model modified the single exponential model derived from the Poisson statistics, P(t)=exp (−t/τ) by adding an exponent β to the dimensionless induction time t/τ to capture the spread in characteristic time scales caused by a distribution of nucleation active sites present in the system.

[4] = Nucleation induction time of ASA / ACM with PEGDA or PEGDA-co-AM microgels in 38/62 ethanol/water; type: physicochemical; details: for average nucleation induction time τ: ACM S = 3.7; for Average nucleation induction time τ (stretched exponential fit) / τ1 (two-exponential fit) / τ2 (two-exponential fit): ACM
Text: Nucleation kinetics of model compounds was investigated by measuring the nucleation induction time probability distribution. Nucleation induction time is generally time elapsed prior to the formation of a detectable amount of the new crystalline phase. It is a useful indicator of the surface nucleation activity because it can be dramatically shortened when the presence of an interface lowers the free energy barrier of nucleation. Due to the stochastic nature of nucleation events, a large number of experiments were performed to obtain the probability distribution of nucleation induction time. To obtain the average induction time τ, statistical analysis on the induction time data was conducted based on the understanding that nucleation follows a Poisson distribution. According to Poisson statistics, the probability for a nucleation event to occur beyond time t is P=exp(−t/τ), which implies that the fraction of vials without nucleation at time t exponentially decays as a function of time, where the scaling factor for time is the average induction time.
For determining the statistical analysis of aspirin nucleation induction time with PEGDA particles of various mesh sizes (particles denoted by Mn), 1.9 mL of 38 mg/ml ASA solution in 38/62 ethanol/water (v/v) with 15 μg/mL PEGDA particles was cooled at a rate of 5° C./min from 35° C. to 15° C. to achieve a supersaturation of 2.1. The solution was stirred at 700 rpm. The onset of nucleation was detected by an IR probe which measures the transmission signal through the solution. A total of 10 vials were cycled for 5-10 times to yield 50-100 nucleation induction time measurements for the statistical analysis.
The nucleation rate, J, is given by J=1/τV, where τ the average induction time (Table 1) and V the volume of solution. For this equation to be valid, the assumption is that the crystal growth rate is much faster than the nucleation rate, which is the case for ASA. […] Other crystallization conditions were kept the same.
[…] The solution was stirred at 700 rpm. The onset of nucleation was detected by an IR probe which measures the transmission signal through the solution. A total of 10 vials were cycled for 5-10 times to yield 50-100 nucleation induction time data for the statistical analysis.
Effect of polymer gels on nucleation induction time statistics: To evaluate the impact of polymer-solute interactions on nucleation kinetics, induction times of ASA and ACM were measured with microgels of a series average mesh sizes before and after chemical modification suspended in respective supersaturated solutions. […] For each system, a large number of experiments (50-100) were conducted to obtain the induction time probability distribution. The nucleation induction time generally follows the Poisson distribution. However, deviations can occur, as observed in this study, when there is more than one type of nucleation sites in a sample, giving rise to multiple Poisson processes with different characteristic time scales.
For samples with PEGMDA microgels, the nucleation induction time distributions reported in previous work can be faithfully described by stretched exponentials (Tables 5 and 6), P=exp[−(t/τ)^β], where P is the probability to observe no crystallization event within time t, τ the average induction time. The stretched exponential exponent β served as a measure for the spread of time scales characterizing the nucleation process, or the distribution of kinetic barriers arisen from the heterogeneity of the system. Such heterogeneity can be attributed to the heterogeneity of the polymer microstructure identified using SANS, which resulted from a distribution of nucleation sites arising from spatial variations in both the mesh size and chemical composition of the hydrogel at nanometer length scales. Note that β varies with the average mesh size of the microgel. […]

[5] = Equilibrium partitioning of ASA / ACM into PEGDA and PEGDA-co-AM gels; type: physicochemical; details: for increase in κ with modified gels: ACM
Method: This theory is exemplified by quantifying the partitioning of aspirin between the PEGDA gel phase and 38/62 ethanol/water (v/v), and determining the concentration of aspirin in the hydrogel particles. The partitioning experiments were performed at the same solution concentration and temperature as in the nucleation induction time experiments. In the partitioning experiment, both the concentrations of aspirin and ethanol were measured, as there are three species in the bulk solution, namely aspirin, ethanol and water, all of which partition in the gel phase to a certain degree determined by their relative interaction with the PEGDA polymer matrix.
Composition of aspirin solution in the PEGDA gel phase were compared with the bulk phase. PEGDA gels sufficiently large for convenient handling were synthesized by UV polymerization, following the same formulation as the synthesis of PEGDA particles used in the crystallization study. The PEGDA gels were washed with ethanol and vacuum dried to remove unreacted species. The gel was then immersed in excessive 38 mg/ml aspirin solution in 38/62 ethanol/water (v/v) and allowed sufficient time to reach equilibrium swelling at 15° C. before taken out, pad dried, and put in excessive water. After 5 hours immersed in water, the concentrations of aspirin and ethanol in the aqueous phase were analyzed by UV-Vis spectroscopy and Gas Chromatography, respectively.
In FIG. 10: Partitioning of aspirin vs. acetaminophen in the PEGDA gel. Y axis represents the relative API concentration in the PEGDA, normalized by the bulk concentration. The aspirin partitioning experiment was conducted in 38 mg/ml aspirin solution in 38/62 ethanol/water (v/v) at 15° C. As for acetaminophen, 95 mg/ml acetaminophen solution in 38/62 ethanol/water (v/v) was used and the equilibration temperature was 8° C. In both cases, the experimental conditions were kept the same as used in the nucleation induction time study.
Quantification of polymer-solute interactions: The strength of intermolecular interactions between the PEGDA-co-AM polymer network and the molecule to crystallize was characterized with the solute equilibrium partition coefficient at the same condition as used in the crystallization study. Solute partition coefficient κ, defined as the ratio of solute mass fraction in solution confined in the gel to that in the bulk, is a relevant parameter because it informs the solute concentration in the gel at the crystallization condition, which is an important factor affecting nucleation. […] The PEGDA polymers are comprised of the PEG subchain and the acrylate crosslinkers.
Partition coefficient measurements: Partition coefficients of ASA in PEGDA-co-AM gels from its bulk solution were determined as follows. In brief, a series of gels with varying mesh sizes of approximately 5 mm in diameter and 0.5 mm in thickness were synthesized via UV polymerization following the same formula as used in the microgel synthesis. The residue solvent, porogen and monomer molecules were removed by extensive washing with solvent ethanol and subsequent vacuum drying. The dry gels were then immersed in excessive volume of 38 mg/ml ASA solution in 38/62 (v/v) ethanol/water at 15° C. for overnight.

[6] = Solubility of ASA and ACM; type: physicochemical; details: aqueous with cosolvent or surfactant or cyclodextrin; 38/62 (v/v) ethanol/water mixture at 25° C
[7] = CBZ, Bulk ethanol solution, S=1.63, T=25° C
[8] = CBZ, PEGMDA microgels M 130 g/mol
[9] = CBZ, PEGMDA microgels M 200 g/mol
[10] = PEGDA-co-AM microgels M 130 g/mol
[11] = PEGDA-co-AM microgels M 200 g/mol
[12] = PEGDA-co-AM microgels M 400 g/mol

SMILES: NC(=O)N1c2ccccc2C=Cc2ccccc21 [CBZ, carbamazepine]
- Partition coefficient κ (solute mass fraction in gel solution / bulk) ([1]; PEGMDA microgels M 130 g/mol): 3.0 ± 0.4
- Partition coefficient κ (solute mass fraction in gel solution / bulk) ([1]; PEGMDA microgels M 200 g/mol): 2.7 ± 0.1
- Partition coefficient κ (solute mass fraction in gel solution / bulk) ([1]; PEGMDA microgels M 400 g/mol): 3.8 ± 0.2
- Partition coefficient κ (solute mass fraction in gel solution / bulk) ([1]; PEGMDA microgels M 575 g/mol): 3.8 ± 0.04
- Partition coefficient κ (solute mass fraction in gel solution / bulk) ([1]; PEGMDA microgels M 700 g/mol): 3.7 ± 0.1
- energy separation between form III and II [2]: less than 0.7 kcal/mol
- Polymorph [3, 7]: concomitant crystallization of Forms I and II; also recorded: II & I, occasionally
- average nucleation induction time τ [3, 7]: 427 ± 13 min
- Polymorph [3, 8]: II & I
- average nucleation induction time τ [3, 8]: 222 ± 5 min
- Polymorph [3, 9]: II & I
- average nucleation induction time τ [3, 9]: 174 ± 11 min
- average nucleation induction time τ ([3]; CBZ, PEGMDA microgels M 400 g/mol): 10.9 ± 0.3 min
- average nucleation induction time τ ([3]; CBZ, PEGMDA microgels M 575 g/mol): 33 ± 1 min
- average nucleation induction time τ ([3]; CBZ, PEGMDA microgels M 700 g/mol): 49 ± 1 min
- Polymorph crystallized ([3]; CBZ, PEGMDA microgels with M≧400 g/mol, ~250 trials): pure Form II
- optimum mesh size for CBZ nucleation ([3]; PEGMDA microgels): 1.1 nm

SMILES: CC(=O)Nc1ccc(O)cc1 [acetaminophen]
- average nucleation induction time τ ([4]; Bulk (no particles), 38/62 ethanol/water): 6500 ± 1600 min
- average nucleation induction time τ ([4]; PEGDA microparticles Mn 130 g/mol): 920 ± 70 min
- average nucleation induction time τ ([4]; PEGDA microparticles Mn 200 g/mol): 540 ± 20 min
- average nucleation induction time τ ([4]; PEGDA microparticles Mn 400 g/mol): 1720 ± 150 min
- average nucleation induction time τ ([4]; PEGDA microparticles Mn 700 g/mol): 6500 ± 1600 min
- Average nucleation induction time τ (stretched exponential fit) ([4]; Bulk): 37000 min
- Average nucleation induction time τ (stretched exponential fit) ([4]; PEGDA microgels M 130 g/mol): 1600 min
- Average nucleation induction time τ (stretched exponential fit) ([4]; PEGDA microgels M 200 g/mol): 480 min
- Average nucleation induction time τ (stretched exponential fit) ([4]; PEGDA microgels M 400 g/mol): 5300 min
- Average nucleation induction time τ (stretched exponential fit) ([4]; PEGDA microgels M 700 g/mol): 37000 min
- τ1 (two-exponential fit) [4, 10]: 55 min
- τ2 (two-exponential fit) [4, 10]: 1360 min
- τ1 (two-exponential fit) [4, 11]: 88 min
- τ2 (two-exponential fit) [4, 11]: 12400 min
- τ1 (two-exponential fit) [4, 12]: 70 min
- τ2 (two-exponential fit) [4, 12]: 35000 min
- promotion of nucleation kinetics when AM co-monomer was introduced into the PEGDA matrix ([4]; PEGDA-co-AM vs PEGDA microgels): up to two orders of magnitude
- best enhancement in nucleation kinetics by addition of PEGDA particles ([4]; vs bulk, Table 2): about ten-fold
- acetaminophen concentration in PEGDA particles relative to bulk concentration ([5]; 95 mg/ml in 38/62 ethanol/water, 8° C, FIG. 10): approximately twice the bulk concentration
- increase in κ with modified gels ([5]; Mn=130 g/mol): 35%
- increase in κ with modified gels ([5]; Mn=700 g/mol): 14%
- solubility [6]: 90 mg/mL (≈ 595 mM)
